Columns and labels:
[1] = target: recombinant human cannabinoid 1 receptor (CB1) (Homo sapiens, UniProt P21554); test: [35S]GTPγS binding assay, antagonism against WIN 55,212-2; assay type: biochemical; conditions: compound at 1 μM against WIN 55,212-2 dose response; CHO-CB1 membranes; 100% = effect of internal standard CB1-antagonist
Protocol: The percentage of catalepsy is determined according to the following formula: % Catalepsy=arithmetic mean/6×100 Antagonistic Assay: Materials and Methods. Membrane Preparation:
Chinese hamster ovary (CHO) cells stably expressing recombinant human cannabinoid 1 receptor (CB1) were cultured in nutrient mixture Ham's F 12 supplemented with 10% heat-inactivated fetal bovine serum, 2 mM L-glutamine, 50 U/ml penicillin, 50 U/ml streptomycin and 0.5 mg/ml geneticin. In order to obtain cells, culture flasks were washed twice with phosphate buffered saline and scraped. Then, cells were collected by centrifugation (200×g, 10 min) and stored dry at −80° C. Cells were homogenized in ice-cold 20 mM HEPES, 10 mM EDTA (pH 7.5) and centrifuged at 40,000×g for 15 min at 4° C. The pellet was resuspended in 20 mM HEPES, 0.1 mM EDTA (pH 7.5) and centrifuged for 15 min at 4° C. The final pellet was resuspended in 20 mM HEPES, 0.1 mM EDTA (pH 7.5), and divided in aliquots and stored at −80° C. until use.
[^35S]GTPγS Binding Assay:
The reaction was performed in 96-well plates. Membranes (15 µg protein/well) were incubated for 60 min at 30° C. in buffer (50 mM HEPES, 100 mM KCl, 5 mM MgCl2, 1 mM EDTA, 0.1% wt/vol bovine serum albumin, 5 μM GDP, saponin (10 μg/ml), 0.5 nM [^35S]GTPγS, pH 7.4) with compound at 1 μM final concentration in either the absence or presence of dose response curve of agonist WIN 55,212-2 between 3 nM and 3 μM. The incubation was terminated by rapid filtration through Millipore Multiscreen glass fiber FB, and rinsed two-times with ice-cold assay buffer. Filter plates were dried and 30 μl of scintillation liquid was added. Radioactivity was determined using Wallac Microbeta Trilux. Each experiment was performed at least in duplicate. A WIN 55,212-2 dose-response was systematically performed.
The average of basal [^35S]GTPγS binding was subtracted from all binding data. In order to compare the antagonism results from one screening campaign to another one, the difference between the maximal agonist effect of WIN 55,212-2 alone, and the maximal antagonism effect due to WIN 55,212-2 with an internal standard CB1-antagonist was defined as 100%.

[2] = target: T1, CB1 receptor (Homo sapiens, UniProt P21554); test: In-vitro determination of affinity to CB1/CB2 receptors (radioligand [3H]-CP55940); conditions: transfected human receptor, binding
T1 construct: purchased Receptor Biology, Inc
Protocol: Pharmacological Data: Pharmacological Methods I. In-Vitro Determination of Affinity to CB1/CB2-Receptors
The in-vitro determination of the affinity of the inventive quaternary ammonium salts of substituted pyrazoline compounds to CB1/CB2-Rezeptors is carried out as described in the publication of Ruth A. Ross, Heather C. Brockie et al., “Agonist-inverse agonist characterization at CB1 and CB2 cannabinoid receptors of L-759633, L759656 and AM630”, British Journal of Pharmacology, 126, 665-672, (1999), whereby the transfected human CB1 and CB2 receptors of Receptor Biology, Inc. are used. The radioligand used for both receptors is [^3H]-CP55940. The respective parts of the description are hereby incorporated by reference and forms part of the present disclosure.
The affinity of the inventive substituted pyrazoline compounds to CB1/CB2 receptors was determined as described above.

T1 sequence (P21554 whole entry): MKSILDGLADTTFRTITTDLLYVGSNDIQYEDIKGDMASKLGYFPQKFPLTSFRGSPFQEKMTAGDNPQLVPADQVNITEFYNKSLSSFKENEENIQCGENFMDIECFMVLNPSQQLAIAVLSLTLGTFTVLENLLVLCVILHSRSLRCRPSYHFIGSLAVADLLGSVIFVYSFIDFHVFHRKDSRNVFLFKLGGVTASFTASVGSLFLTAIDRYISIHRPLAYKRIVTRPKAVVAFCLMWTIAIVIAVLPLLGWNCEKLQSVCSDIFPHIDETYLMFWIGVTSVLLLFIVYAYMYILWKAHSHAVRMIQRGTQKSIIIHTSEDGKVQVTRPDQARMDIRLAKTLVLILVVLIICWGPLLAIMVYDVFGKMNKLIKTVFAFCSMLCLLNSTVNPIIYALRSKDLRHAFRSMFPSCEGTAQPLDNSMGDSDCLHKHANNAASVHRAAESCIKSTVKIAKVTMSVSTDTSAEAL
recombinant human cannabinoid 1 receptor (CB1), sequence (P21554 whole entry): as above

Row | Structure (SMILES) | Antagonism (%) [1] | IC50 [2]
1 | C[C@H]1C(C(=O)NN2CCc3ccccc32)=NN(c2ccc(Cl)cc2Cl)[C@H]1c1ccc(Cl)cc1 [Example 3, (4R,5R)-5-(4-chlorophenyl)-1-(2,4-dichlorophenyl)-N-(indolin-1-yl)-4-methyl-4,5-dihydro-1H-pyrazole-3-carboxamide] | 70% | 100 nM
2 | C[C@H]1C(C(=O)NN2CCc3ccccc32)=NN(c2ccc(Cl)cc2Cl)[C@H]1c1ccc(F)cc1 (relative stereo) [Example 8, cis-1-(2,4-dichlorophenyl)-5-(4-fluorophenyl)-N-(indolin-1-yl)-4-methyl-4,5-dihydro-1H-pyrazole-3-carboxamide] | 48% | 
3 | C[C@@H]1C(C(=O)NN2CCc3ccccc32)=NN(c2ccc(Cl)cc2Cl)[C@H]1c1ccc(Br)cc1 (relative stereo) [Example 7, trans-5-(4-bromophenyl)-1-(2,4-dichlorophenyl)-N-(indolin-1-yl)-4-methyl-4,5-dihydro-1H-pyrazole-3-carboxamide] | 67 ± 3% | 39 nM
4 | CC1Cc2ccccc2N1NC(=O)C1=NN(c2ccc(Cl)cc2Cl)[C@@H](c2ccc(Cl)cc2)[C@H]1C (relative stereo) [Example 5, cis-5-(4-chlorophenyl)-1-(2,4-dichlorophenyl)-4-methyl-N-(2-methylindolin-1-yl)-4,5-dihydro-1H-pyrazole-3-carboxamide] | 16 ± 15% | 128 nM
